According to ChEMBL document CHEMBL5512668, “Macrocyclic Azapeptide Nitriles: Structure-Based Discovery of Potent SARS-CoV-2 Main Protease Inhibitors as Antiviral Drugs” (J Med Chem, 2024):

Legend:
[1] = target: T1, Replicase polyprotein 1ab (Severe acute respiratory syndrome coronavirus 2, UniProt P0DTD1)
Procathepsin L = Procathepsin L (Homo sapiens, UniProt P07711); test: Inhibition of human cathepsin L using Z-Phe-Arg-pNA as substrate incubated for 60 mins
[2] = target: T1, Replicase polyprotein 1ab; remark: listed apart in the source
Cathepsin S = Cathepsin S (Homo sapiens, UniProt P25774); test: Inhibition of recombinant human cathepsin S using Z-Phe-Arg-AMC as substrate incubated for 60 mins
Chain of Cathepsin S (P25774 whole entry): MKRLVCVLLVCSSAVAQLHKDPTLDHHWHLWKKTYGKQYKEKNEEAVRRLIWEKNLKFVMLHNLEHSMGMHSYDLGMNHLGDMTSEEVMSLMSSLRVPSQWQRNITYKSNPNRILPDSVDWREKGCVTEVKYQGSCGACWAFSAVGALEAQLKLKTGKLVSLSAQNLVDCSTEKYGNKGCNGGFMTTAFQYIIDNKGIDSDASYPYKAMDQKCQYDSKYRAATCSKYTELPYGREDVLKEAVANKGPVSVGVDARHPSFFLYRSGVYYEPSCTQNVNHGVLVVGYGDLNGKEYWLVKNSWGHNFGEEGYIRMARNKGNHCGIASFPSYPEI

[3] = target: Replicase polyprotein 1ab (Severe acute respiratory syndrome coronavirus 2) (UniProt P0DTD1); conditions: dose 1.0 µM, time 65.0 min
[4] = Stability of compound in DMEM assessed as time required for 50% compound degradation at 100 uM incubated for 24 hrs by HPLC method
SARS-CoV-2 [5] = test: microbe, parasite or virus in culture; conditions: Severe acute respiratory syndrome coronavirus 2, JPN/TY/WK-521, VeroE6/TMPRSS2
in vitro = conditions: male, human, plasma
SARS-CoV-2 [6] = test: microbe, parasite or virus in culture; conditions: Severe acute respiratory syndrome coronavirus 2, JPN/TY/WK-521, VeroE6/TMPRSS2, 24 h, read-out: INH
SARS-CoV-2 [7] = test: microbe, parasite or virus in culture; conditions: Severe acute respiratory syndrome coronavirus 2, JPN/TY/WK-521, VeroE6/TMPRSS2, 24 h, read-out: INH; remark: listed apart in the source
SARS-CoV-2 [8] = test: microbe, parasite or virus in culture; conditions: Severe acute respiratory syndrome coronavirus 2, WK-521, Vero C1008
SARS-CoV-2 [9] = test: microbe, parasite or virus in culture; conditions: Severe acute respiratory syndrome coronavirus 2, JPN/TY/WK-521, VeroE6/TMPRSS2; remark: listed apart in the source

Chain of Procathepsin L (P07711 whole entry): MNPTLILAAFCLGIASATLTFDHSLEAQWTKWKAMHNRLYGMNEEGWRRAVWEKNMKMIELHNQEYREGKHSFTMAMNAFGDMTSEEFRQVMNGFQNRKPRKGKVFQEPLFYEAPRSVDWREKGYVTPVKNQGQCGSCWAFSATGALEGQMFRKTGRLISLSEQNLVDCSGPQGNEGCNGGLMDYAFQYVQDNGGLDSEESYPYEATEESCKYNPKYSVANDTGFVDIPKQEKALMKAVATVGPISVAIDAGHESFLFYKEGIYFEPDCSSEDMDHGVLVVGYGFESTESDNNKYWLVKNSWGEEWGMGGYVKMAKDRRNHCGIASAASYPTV

## CN(C(=O)[C@H](Cc1ccccc1)NC(=O)[C@@H](NC(=O)c1cccs1)C(C)(C)C)N(C#N)Cc1ccc(Cl)cc1
[1]
  IC50: 19 nM
Procathepsin L
  Ki: 179 nM
[2]
  Ki: 13.3 nM

## CN1C(=O)[C@H](Cc2ccccc2)N(C(=O)[C@@H](NC(=O)c2cccs2)C(C)(C)C)CCCOc2ccc(Cl)c(F)c2CN1C#N
Cathepsin S
  Ki: 3020 nM

## CN(C(=O)[C@H](Cc1ccccc1)NC(=O)C1(Oc2ccc(Cl)cc2Cl)CCC1)N(C#N)Cc1ccc(Cl)cc1
[3]
  inhibition: 8%

## CN1C(=O)[C@H](CCc2ccccc2)NC(=O)COCCOCCOc2ccc(F)cc2CN1C#N
Cathepsin S
  Ki: 662 nM

## CN(C(=O)[C@H](Cc1ccccc1Cl)NC(=O)[C@@H](NC(=O)c1cccs1)C(C)(C)C)N(C#N)Cc1cccc(Cl)c1F
[1]
  IC50: 26 nM
Procathepsin L
  Ki: 56.1 nM

## CN(C(=O)[C@H](Cc1ccccc1)NC(=O)[C@@H]1Cc2ccccc2CN1C(=O)c1cccs1)N(C#N)Cc1ccc(Cl)cc1
[3]
  inhibition: 21%

## CN1C(=O)[C@H](Cc2ccccc2)N(C(=O)COc2ccc(Cl)cc2Cl)CCCOc2ccc(Cl)c(F)c2CN1C#N
[1]
  IC50: 57 nM
Cathepsin S
  Ki: 1820 nM

## CN(C(=O)[C@H](Cc1ccc(Cl)cc1)NC(=O)[C@@H](NC(=O)c1cccs1)C(C)(C)C)N(C#N)Cc1cccc(Cl)c1F
[3]
  inhibition: 6%

## CN(C(=O)[C@@H](NC(=O)[C@@H](NC(=O)c1cccs1)C(C)(C)C)C1CCCCC1)N(C#N)Cc1cccc(Cl)c1F
[3]
  inhibition: 21%

## CN(C(=O)[C@@H]1CCCN1C(=O)[C@@H](NC(=O)c1cccs1)C(C)(C)C)N(C#N)Cc1cccc(Cl)c1F
[3]
  inhibition: 5%

## CN(C(=O)[C@H](Cc1ccccc1)NC(=O)C(C)(C)Oc1ccc(Cl)cc1Cl)N(C#N)Cc1ccc(Cl)cc1
[3]
  inhibition: 17%

## CN(C(=O)[C@@H](NC(=O)[C@@H](NC(=O)c1cccs1)C(C)(C)C)C(c1ccccc1)c1ccccc1)N(C#N)Cc1cccc(Cl)c1F
[3]
  inhibition: 10%

## CN(C(=O)[C@H](Cc1cccs1)NC(=O)[C@@H](NC(=O)c1cccs1)C(C)(C)C)N(C#N)Cc1cccc(Cl)c1F
[1]
  IC50: 9 nM
Procathepsin L
  Ki: 130 nM
[2]
  Ki: 6.45 nM

## CN1C(=O)[C@H](Cc2ccccc2)NC(=O)COCCOCCOc2ccc(F)cc2CN1C#N
[1]
  IC50: 2610 nM
Cathepsin S
  Ki: 765 nM

## CN(C(=O)[C@H](Cc1ccccc1)NC(=O)C1(Oc2ccc(Cl)cc2Cl)CCCCC1)N(C#N)Cc1ccc(Cl)cc1
[3]
  inhibition: 7%

## CN(C(=O)[C@@H]1Cc2ccccc2CN1C(=O)COc1ccc(Cl)cc1Cl)N(C#N)Cc1ccc(Cl)cc1
[3]
  inhibition: 11%

## CN(C(=O)[C@H](Cc1ccccc1)NC(=O)OCc1ccccc1)N(C#N)Cc1cc(Cl)ccc1F
[1]
  IC50: 119 nM

## CN(C(=O)[C@H](Cc1ccccc1F)NC(=O)[C@@H](NC(=O)c1cccs1)C(C)(C)C)N(C#N)Cc1cccc(Cl)c1F
[1]
  IC50: 19 nM
Procathepsin L
  Ki: 49.6 nM

## CN(C(=O)[C@@H]1Cc2ccccc2CN1C(=O)OCc1ccccc1)N(C#N)Cc1ccc(Cl)cc1
[3]
  inhibition: 26%

## CN(C(=O)[C@H](Cc1ccccc1)NC(=O)OCc1ccccc1)N(C#N)Cc1cccc(Cl)c1
[1]
  IC50: 88 nM

## CN(C(=O)[C@H](Cc1ccccc1)NC(=O)OCc1ccccc1)N(C#N)Cc1ccsc1
[1]
  IC50: 416 nM

## CN1C(=O)[C@H](Cc2ccccc2)N(C(=O)CNC(=O)c2cccs2)CCCOc2c(Cl)cccc2CN1C#N
[1]
  IC50: 3 nM
[2]
  Ki: 2.29 nM
[4]
  half-life at 24 h, 100 µM: 7.65 h
SARS-CoV-2 [5]
  EC50: 2550 nM
Cathepsin S
  Ki: 470 nM
In vitro
  half-life at 100 µM: 3 h
SARS-CoV-2 [6]
  inhibition at 3.33 µM: 63%

## COc1ccc([C@@H]2Sc3ccccc3N(CCN(C)C)C(=O)[C@@H]2OC(C)=O)cc1.Cl [DILTIAZEM HYDROCHLORIDE]
In vitro
  half-life at 100 µM: 13.1 h

## CN(C(=O)[C@H](Cc1ccccc1)NC(=O)[C@@H](NC(=O)c1ccc(-c2cccs2)s1)C(C)(C)C)N(C#N)Cc1ccc(Cl)cc1
[1]
  IC50: 534 nM

## CN(C(=O)[C@H](Cc1ccccc1)NC(=O)OCc1ccccc1)N(C#N)Cc1ccc(Br)cc1
[1]
  IC50: 200 nM

## CN(C(=O)[C@H](Cc1ccccc1)NC(=O)OCc1ccccc1)N(C#N)Cc1cccc(F)c1
[1]
  IC50: 142 nM

## CN(C(=O)[C@H](Cc1ccccc1)NC(=O)OCc1ccccc1)N(C#N)Cc1ccco1
[1]
  IC50: 206 nM

## CN(C(=O)[C@H](Cc1cccc(F)c1)NC(=O)[C@@H](NC(=O)c1cccs1)C(C)(C)C)N(C#N)Cc1cccc(Cl)c1F
[1]
  IC50: 4 nM
Procathepsin L
  Ki: 178 nM

## CN1C(=O)[C@H](CCc2ccccc2)NC(=O)COCCOc2ccc(F)cc2CN1C#N
[1]
  IC50: 1470 nM
Cathepsin S
  Ki: 179 nM

## CN(C(=O)[C@H](Cc1ccccc1)NC(=O)[C@@H]1CCCN1C(=O)c1cccs1)N(C#N)Cc1ccc(Cl)cc1
[3]
  inhibition: 13%

## CN(C(=O)[C@H](Cc1ccccc1)NC(=O)OCc1ccccc1)N(C#N)Cc1ccc(Br)c(Cl)c1
[1]
  IC50: 192 nM

## CCN(CC)CCOC(=O)c1ccc(N)cc1.Cl [PROCAINE HYDROCHLORIDE]
In vitro
  half-life at 100 µM: 0.103 h

## COc1ccc(Cl)c(F)c1CN(C#N)N(C)C(=O)[C@H](Cc1ccccc1)NC(=O)OCc1ccccc1
[1]
  IC50: 392 nM

## CN1C(=O)[C@H](Cc2ccccc2)N(C(=O)COc2ccc(Cl)cc2Cl)CCCOc2c(Cl)cccc2CN1C#N
[1]
  IC50: 38 nM
[2]
  Ki: 26.8 nM
[4]
  half-life at 24 h, 100 µM: 1.76 h
SARS-CoV-2 [7]
  inhibition at […]: 58%
SARS-CoV-2 [5]
  EC50: 2140 nM
In vitro
  half-life at 100 µM: 1.92 h

## CN(C(=O)[C@H](Cc1ccccc1)NC(=O)OCc1ccccc1)N(C#N)Cc1ccccc1Br
[1]
  IC50: 188 nM

## CN(C(=O)[C@H](Cc1ccccc1)NC(=O)[C@@H](NC(=O)c1cccs1)C1CCCCC1)N(C#N)Cc1ccc(Cl)cc1
[1]
  IC50: 18 nM
Procathepsin L
  Ki: 25.1 nM
[2]
  Ki: 13 nM

## CC(C)(C)[C@H](NC(=O)C(F)(F)F)C(=O)N1C[C@H]2[C@@H]([C@H]1C(=O)N[C@H](C#N)C[C@@H]1CCNC1=O)C2(C)C
SARS-CoV-2 [8]
  IC50: 940 nM
SARS-CoV-2 [9]
  IC50: 160 nM
SARS-CoV-2 [5]
  EC50: 860 nM
SARS-CoV-2 [6]
  inhibition at 3.33 µM: 93%

## CN1C(=O)[C@H](Cc2ccccc2)N(C(=O)CNC(=O)c2cccs2)CC2(CC2)COc2c(Cl)cccc2CN1C#N
[1]
  IC50: 30 nM
[2]
  Ki: 21.1 nM

## CN(C(=O)[C@H](Cc1ccccc1)NC(=O)OCc1ccccc1)N(C#N)Cc1cccc(Cl)c1F
[1]
  IC50: 35 nM

## CN(C(=O)[C@H](Cc1ccccc1)NC(=O)COc1ccc(Cl)cc1)N(C#N)Cc1ccc(Cl)cc1
[1]
  IC50: 1300 nM

## CC(C)c1ccc(OCC(=O)N[C@@H](Cc2ccccc2)C(=O)N(C)N(C#N)Cc2ccc(Cl)cc2)cc1
[3]
  inhibition: 21%

## COc1ccc(OC)c(CN(C#N)N(C)C(=O)[C@H](Cc2ccccc2)NC(=O)OCc2ccccc2)c1
[1]
  IC50: 826 nM

## COc1cccc(OCC(=O)N[C@@H](Cc2ccccc2)C(=O)N(C)N(C#N)Cc2ccc(Cl)cc2)c1
[1]
  IC50: 1230 nM

## CN(C(=O)[C@H](Cc1ccccc1)NC(=O)[C@@H](NC(=O)C(F)(F)F)C(C)(C)C)N(C#N)Cc1ccc(Cl)cc1
[1]
  IC50: 33 nM

## CN(C(=O)[C@H](Cc1ccccc1)NC(=O)OCc1ccccc1)N(C#N)Cc1ccc(Br)c(Cl)c1F
[1]
  IC50: 125 nM

## CN1C(=O)[C@H](Cc2ccccc2)N(C(=O)COc2ccc(Cl)cc2Cl)CCCCCOc2ccc(F)cc2CN1C#N
[1]
  IC50: 48 nM

## CN(C(=O)[C@H](Cc1ccccc1)NC(=O)[C@@H](NC(=O)c1cccs1)C(C)(C)C)N(C#N)Cc1cccc(Cl)c1F
[1]
  IC50: 15 nM
Procathepsin L
  Ki: 93.5 nM

## CN(C(=O)[C@H](Cc1ccccc1)NC(=O)[C@@H](NC(=O)C1CCCC1)C(C)(C)C)N(C#N)Cc1ccc(Cl)cc1
[1]
  IC50: 32 nM
Procathepsin L
  Ki: 344 nM
[2]
  Ki: 23 nM

## CN1C(=O)[C@H](Cc2ccccc2)NC(=O)COCCOc2ccc(F)cc2CN1C#N
[1]
  IC50: 226 nM

## CN(C(=O)[C@H](Cc1cccc(Cl)c1)NC(=O)[C@@H](NC(=O)c1cccs1)C(C)(C)C)N(C#N)Cc1cccc(Cl)c1F
[1]
  IC50: 9 nM
Procathepsin L
  Ki: 163 nM

## CN(C(=O)[C@H](Cc1ccccc1)NC(=O)COc1ccc(Cl)cc1Cl)N(C#N)Cc1ccc(Cl)cc1
[1]
  IC50: 1820 nM

## CN(C(=O)[C@H](Cc1ccccc1)NC(=O)OCc1ccccc1)N(C#N)CC1CCNC1=O (some centres not stated)
[3]
  inhibition: 21%

## COc1cccc(NC2(C(=O)N[C@@H](Cc3ccccc3)C(=O)N(C)N(C#N)Cc3ccc(Cl)cc3)CCCC2)c1
[3]
  inhibition: 12%

## COc1cccc(CN(C#N)N(C)C(=O)[C@H](Cc2ccccc2)NC(=O)OCc2ccccc2)c1F
[1]
  IC50: 118 nM

## CN(C(=O)[C@H](Cc1ccccc1)NC(=O)CNc1c(F)cccc1F)N(C#N)Cc1ccc(Cl)cc1
[1]
  IC50: 987 nM

## CN(C(=O)[C@H](Cc1ccc(F)cc1)NC(=O)[C@@H](NC(=O)c1cccs1)C(C)(C)C)N(C#N)Cc1cccc(Cl)c1F
[1]
  IC50: 25 nM
